According to US20250313653A1, “GUEST/HOST INCLUSION COMPLEXES CONTAINING S-NITROSOGLUTATHIONE AND METHODS OF USE THEREOF” (VIRGINIA COMMONWEALTH UNIVERSITY, priority 2022, published 2025):

Key:
[1] = GSNO thermal decomposition via UV-Vis absorption spectroscopy; assay type: physicochemical
Procedure: (§1) GSNO was synthesized by nitrosation of reduced L-glutathione in acidified nitrite as previously reported.^52 After collecting GSNO precipitates and washing them using cold water and acetone, GSNO powder was vacuum dried for 4 h and stored at −20° C. GSNO powders were dissolved in phosphate buffer (PB) containing the same mole of Na2HPO4 before the pH adjustment. For example, the formal concentration of Na2HPO4 is 0.1 M when the GSNO concentration is 0.1 M. One hundred μM EDTA was always added to each solution before the solution pH was finally adjusted to 7.4 via NaOH. EDTA is a chelating agent to mask Cu^2+, a S-nitrosothiol catalyst that may exist in solvents and chemicals as an impurity.^53 For solutions with reactive agents, BSA, ascorbic acid, or cysteine was added before the pH adjustment. To prepare GSNO-CD solutions, appropriate amounts of CD powders were dissolved into the GSNO solutions prior to the pH adjustment.
(§2) Aqueous GSNO solutions were contained in 1.5 mL disposable polystyrene cuvettes. The cuvette was caped and further sealed with parafilm. The concentrations of GSNO during storage at 37° C. or 25° C. in the dark were monitored by a UV-vis spectrophotometer (Go Direct® Fluorescence/UV-VIS Spectrophotometer) at a wavelength of 545 nm. A 4 W LED white light was used as the light source for the photodecomposition experiment at room temperature. The distance between the light source and the cuvettes was approximately 10 cm. All GSNO decomposition experiments were triplicated, and the GSNO concentration was expressed as mean±standard deviation.

[2] = GSNO decomposition in the presence of biologically relevant reactants (cysteine, L-ascorbic acid, BSA); assay type: physicochemical; details: for GSNO left after 24 h of storage: 0.1 M GSNO with 20 mg/mL BSA, 37° C.
Procedure: as §1, §2

[3] = GSNO photodecomposition under LED white light; assay type: physicochemical; details: presence of αCD, 4-h experiment under LED white light, room temperature
Procedure: as §2

[4] = Stability of GSNO in agar hydrogel (colour fading); assay type: physicochemical; details: 1% agar hydrogel, 0.1 M GSNO, 37° C.
Procedure: (§3) Two grams of agar were dissolved in 100 mL of 0.1 M phosphate buffer at pH 7.4 at 80° C. for 3 h with stirring. GSNO solutions at 0.2 M with or without 0.2 M αCD in 0.1 M phosphate buffer at pH 7.4 were prepared separately. Then, 0.5 mL GSNO solution and 0.5 mL dissolved agar were mixed and put into an ice bath to facilitate gelation.

S. aureus [5] = assay: Prevention of intraluminal catheter infection (planktonic and biofilm); assay type: cell-based; details: 3-day experiments
Procedure: (§4) Both biofilm and planktonic bacteria were quantified to evaluate the antibacterial activities of the proposed method. LB medium (25 mg/mL) was used to culture all bacterial strains overnight before performing the antibacterial tests. Segments of medical-grade silicone tubes were all autoclaved. Lock solutions were freshly prepared using the sterilized buffer and filtered through a 0.22 m PES syringe filter. The biofilms on the silicone surface were dip-rinsed 5 times in PBS and detached by 1-min vertexing, 1-min sonication (20% power of a 150 W probe sonifier, Branson Ultrasonics), and another 1-min vertexing for plate counting. When quantifying the planktonic bacteria, the suspension was homogenized by 1-min vertexing. […] After plate incubation at 37° C. overnight, colony-forming units (CFU) of bacteria were counted and converted to CFU/cm^2 for biofilm quantification and CFU/mL for planktonic bacteria quantification. […] In our case, the limit of detection (LOD) is 400 CFU/cm^2 for biofilm quantification and 200 CFU/mL for quantification of planktonic bacteria. […] The statistical significance between groups was determined using a student's t-test.
(§5) The 0.1 M αCD, 0.1 M GSNO, and 0.1 M GSNO+0.1 M αCD solutions were prepared in LB broth buffered with 0.1 M Na2HPO4 and adjusted to pH 7.4. […] Viable biofilm and planktonic cells were evaluated by plate counting. […]

E. coli = assay: Antibacterial effect of NO release solutions, 3-day exposure; assay type: cell-based; details: silicone surface
Procedure: as §4, §5

fibroblast L929 cells = assay: Cytotoxicity test (MTS assay) of lock-solution-filled silicone tubes; assay type: cell-based, mouse; details: 24-h incubation of L929 cells with silicone tubes filled with the lock solution
Procedure: L929 murine fibroblast cells were suspended in complete media (DMEM with 1% penicillin/streptomycin and 10% FBS) before being seeded in a 24-well plate at a concentration of 5×10^5 cells per well. After 24 h of incubation, the attached cells in each well were incubated in fresh media containing a sterilized 1-cm silicone tube (HelixMark® 60-011-07) filled with a lock solution with buffer, GSNO, or GSNO-αCD and with both ends sealed. MTS assays were performed following the manufacturer's procedure after an additional 24-h incubation. Absorbance at 490 nm was measured by a Cytation 3 imaging plate reader (Biotek).

S. aureus [6] = assay: Agar diffusion assay for the hydrogel containing GSNO; assay type: cell-based; details: agar hydrogel on inoculated LB-agar plate, 24-h incubation at 37° C.
Procedure: as §3
The overnight S. aureus culture was diluted to a density of 0.1 OD600 in PBS. Then, the diluted bacterial inoculum was uniformly spread on an LB-agar plate using a sterile cotton swab. The plate was marked as four separate portions. Forty μL of warm liquid agar with only buffer, GNSO, αCD, or GSNO-αCD (see section 2.5) was added onto a portion of the inoculated plate twice. The agar solution was gelated almost instantly due to the temperature decrease to form a small circular hydrogel area. The bacterial growth was visually examined after 24-h incubation at 37° C.

[7] = administrated in humans, dogs, and rats at appropriate doses; cited from earlier work
[8] = 0.1 M GSNO in 0.1 M PB, pH 7.4, 37° C., with 0.15 M αCD and 0.1 M γCD
[9] = 0.1 M GSNO in 0.1 M PB, pH 7.4, 37° C., without CD
[10] = 0.1 M GSNO with 0.15 M αCD and 0.1 M γCD versus GSNO only

N[C@@H](CCC(=O)N[C@@H](CSN=O)C(=O)NCC(=O)O)C(=O)O [GSNO, S-nitrosoglutathione]
GSNO lifetime ([1]; 0.05 M GSNO and 0.15 M αCD in 0.05 M PB, pH 7.4, 37° C.): 17 days
GSNO lifetime ([1]; 0.05 M GSNO in 0.05 M PB, pH 7.4, 37° C., without CDs): 7 days
GSNO decay in the first 24 h ([1]; 0.1 M GSNO in 0.1 M PB, pH 7.4, 37° C., with 0.1 M αCD): 39%
GSNO lifetime [1, 8]: 15 days
first-day decay of GSNO [1, 8]: 22%
GSNO lifetime ([1]; 0.1 M GSNO in 0.1 M PB, pH 7.4, 37° C., with an equal mole (0.1 M) of αCD): 11 days
GSNO degraded within the first 24 h [1, 9]: 66%
GSNO lifetime [1, 9]: 6 days
improvement of GSNO lifetime [1, 10]: 2.5 times
improvement of first-day decay [1, 10]: 3 times
lifetime of 0.1 M GSNO ([1]; in the presence of CDs at 37° C.): up to 15 days
half-life at 0.05 M ([1]; phosphate buffer, room temperature, 0.05 M GSNO in 0.05 M PB pH 7.4, with 0.15 M αCD): ~20 days
half-life of GSNO relative to only GSNO ([1]; room temperature, with 0.15 M αCD): 4 times
GSNO lifetime ([2]; 0.1 M GSNO in 0.1 M PB pH 7.4 with 10 mM cysteine or L-ascorbic acid, without αCD): 2 to 3 days
effect on GSNO decomposition rate ([2]; 0.1 M GSNO with 10 mM cysteine or L-ascorbic acid, addition of 0.1 M αCD, 4-day experiments): remarkably reduces the decomposition rate
GSNO left after 24 h of storage ([2]; control group without αCD): 21%
GSNO left after 24 h of storage ([2]; in the presence of 0.1 M αCD): 41%
decrease in the decomposition rate of GSNO [3]: ~2 fold
time the reddish color of GSNO lasts ([4]; with an equal mole of αCD): more than 6 days
time in which the reddish color of GSNO fades ([4]; without αCD): less than 2 days
reduction of bacterial biofilm on silicone rubber (S. aureus [5]): 99.2%
reduction of growth of planktonic S. aureus compared to the phosphate buffer (S. aureus [5]; 0.1 M GSNO without or with 0.1 M αCD, 37° C.): 5 orders of magnitude
reduction of E. coli biofilm (E. coli): 79%
cytotoxicity / cell viability (MTS) (fibroblast L929 cells): no cytotoxicity
S. aureus growth on the hydrogel (S. aureus [6]): grows less bacteria
toxicities in in vivo studies [7]: did not reveal any toxicities
